Test results as given in the NIST ThermoML archive (doi:10.1021/je101304x).

Conditions: Liquid, Ebulliometric method (Recirculating still)

C=C(C)C(C)C [2,3-dimethyl-1-butene]
Conditions | vapor or sublimation pressure [kPa]
341.87 K | 153.7
343.06 K | 158.1
343.95 K | 162.3
345.83 K | 171.3
347.12 K | 178.2
348.71 K | 186.4
350.49 K | 196.3
352.78 K | 208.6
353.27 K | 211.3
354.06 K | 216.3
356.15 K | 228.9
358.73 K | 244.9
361.3 K | 262.1
362.89 K | 273.7
363.19 K | 275.3
364.38 K | 284.9
365.57 K | 292.7
366.96 K | 303.8
368.24 K | 313.9
369.04 K | 319.7
370.13 K | 328.6
371.12 K | 336.4
372.21 K | 346.1
372.9 K | 351.5
373.7 K | 358.8
374.59 K | 366.7
375.19 K | 372.1
375.78 K | 377.4
376.87 K | 386.8
377.37 K | 391.7

c1ccccc1 [benzene]
Conditions | vapor or sublimation pressure [kPa]
403.15 K | 379.3

C1CCCCC1 [cyclohexane]
Conditions | vapor or sublimation pressure [kPa]
403.15 K | 362.8

CO [methanol]
Conditions | vapor or sublimation pressure [kPa]
333.42 K | 85.4
334.56 K | 89.5
337.65 K | 101.3
342.17 K | 120.9
343.06 K | 124.8
346.64 K | 142.6
350.25 K | 163.2
353.17 K | 181
353.27 K | 181.7
356.35 K | 202.7
358.91 K | 221.3
361.45 K | 241.4
363.19 K | 255.9
363.85 K | 261.6
366.88 K | 288.9
370.13 K | 321.3
372.04 K | 341.2
372.9 K | 350.9
375.89 K | 385.4
